From patent US20020037872A1, “N6 heterocyclic 5' modified adenosine derivatives” (CV Therapeutics, Inc., priority 1999, published 2002)
“Also recorded” adds a separate entry of the source.

Legend:
A1 adenosine receptor [1] = target: T1, A1 adenosine receptor (Cavia porcellus, UniProt P47745); assay: Guinea pig isolated perfused heart: S-H interval, heart rate, atrial MAP; settings: for effect on atrial monophasic action potential: FIG. 1 panel B; for effect on AV nodal conduction time (S-H interval) / second-degree AV block: FIG. 1 panel C; for effect on heart rate (chronotropic): spontaneously beating hearts, FIG. 1 panel A
T1 construct: The hearts were quickly removed and rinsed in ice-cold Krebs-Henseleit solution; from tissue; host or cells: guinea pig isolated perfused heart
T1 sequence (P47745 1-326): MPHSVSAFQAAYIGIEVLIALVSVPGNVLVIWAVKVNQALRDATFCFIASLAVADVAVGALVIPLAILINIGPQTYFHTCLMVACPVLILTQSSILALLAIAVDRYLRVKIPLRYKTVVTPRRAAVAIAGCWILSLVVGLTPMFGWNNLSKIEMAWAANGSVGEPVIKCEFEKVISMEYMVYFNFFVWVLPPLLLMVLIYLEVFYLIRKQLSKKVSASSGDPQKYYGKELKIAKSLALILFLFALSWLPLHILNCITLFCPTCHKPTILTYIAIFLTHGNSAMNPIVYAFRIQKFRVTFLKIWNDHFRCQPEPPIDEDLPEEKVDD
Experimental: Guinea pigs of either sex weighing 250-300 g were anesthetized with methoxyflurane and killed by cervical dislocation. The hearts were quickly removed and rinsed in ice-cold Krebs-Henseleit solution. The aorta was cannulated and the heart retrogradely perfused at a constant flow of 10 ml min^−1 with modified Krebs-Henseleit solution containing (mM): NaCL 117.9, KCl 4.8, CaCl2 2.5, MgSO4 1.18, KH2PO4 1.2, Na2EDTA 0.5, ascorbic acid 0.14, glucose 5.5, pyruvic acid (sodium salt) 2.0, and NaHCO3 25. The K—H solution was oxygenated with 95% oxygen and 5% CO2, pH 7.4, and temperature maintained at 36° C.
Hearts were electrically paced at a cycle length of 290-300 ms (unless otherwise indicated) using a bipolar electrode placed on the right atrium or ventricle. The stimulator, an interval generator (Model 1830, WPI, Sarasota, Fla., U.S.A.) delivered stimuli through a stimulus isolation unit (Model 1880, WPI) as square wave pulses of 3 ms in duration and at least twice the threshold intensity. The stimulus-to-His bundle (S—H) interval was used as index of AV nodal conduction time and was measured on-line during constant atrial pacing from microcomputer with a DT-208 1A interface board (Axon Instruments, Burlingame, Calif., U.S.A.) In experiments to study the chronotropic effect (effect on heart rate) of A1 AdoR agonists, the hearts were allowed to beat spontaneously. An atrial electrogram was used to record the electrical activity of the atria and to measure the heart rate.
Monophasic action potentials (MAP) were recorded using a pressure contact silver-silver chloride electrode (Langendorf Probe, EP Technologies, Inc., Sunnyvale, Calif., U.S.A.) placed on the surface of the left atrium. […] Signals were considered adequate if they were stable for at least 5 min and the amplitudes of the MAPs exceeded 10 mV. The data were digitized at 2 kHz by a DT-2801A digitizing board (Data Translation, Marlboro, Mass., U.S.A.) and stored using the Snapshot data acquisition program (Snapshot Storage Scope, HEM Data Corp., Southfield, Mich., U.S.A.) for later analysis. The duration of the atrial monophasic action potential was measured at 90% repolarization (MAPD90), using the Snapshot program. After completion of dissection and instrumentation, the hearts were allowed to equilibrate for 30 min before the experiments were begun. Whenever the baseline and post-intervention (washout) values differed by more than 15% the data were discarded. Approximately 60-70% of the experiments conformed with this criteria.

A1 receptor [2] = target: T2, A1 receptor (Oryctolagus cuniculus, UniProt P34970); settings: administered prior to ischemia; cited from earlier work
T2 construct: a rabbit ischemia model wherein 2-chloro-N6-cyclopentyladenosine (CCPA) and R-PIA were administered prior to ischemia; host or cells: rabbit in vivo
T2 sequence (P34970 1-328): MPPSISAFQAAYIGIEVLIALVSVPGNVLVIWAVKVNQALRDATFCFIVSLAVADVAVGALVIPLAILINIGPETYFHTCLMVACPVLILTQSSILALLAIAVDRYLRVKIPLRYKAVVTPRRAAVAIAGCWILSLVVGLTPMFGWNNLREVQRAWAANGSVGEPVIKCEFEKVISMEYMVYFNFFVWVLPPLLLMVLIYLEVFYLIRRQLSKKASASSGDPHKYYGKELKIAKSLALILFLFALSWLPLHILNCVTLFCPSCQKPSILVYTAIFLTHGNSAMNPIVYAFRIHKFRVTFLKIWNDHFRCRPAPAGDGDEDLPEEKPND

[3] = seizures induced by DMCM; cited from earlier work
white adipocytes = settings: cited from earlier work
A1 receptor [4] = target: A1 receptor (Cavia porcellus, UniProt P47745); settings: chronic administration for 7 days; cited from earlier work
A1 adenosine receptor [5] = target: T3, A1 adenosine receptor (Mesocricetus auratus, UniProt A0A1U8BVR4); assay: cAMP assay (SPA) in DDT1 cells, forskolin-induced cAMP; format: cell-based, hamster
T3 construct: endogenous in cells; host or cells: DDT1 (DDT1 MF-2) hamster vas deferens smooth muscle cells
T3 sequence (A0A1U8BVR4 1-326): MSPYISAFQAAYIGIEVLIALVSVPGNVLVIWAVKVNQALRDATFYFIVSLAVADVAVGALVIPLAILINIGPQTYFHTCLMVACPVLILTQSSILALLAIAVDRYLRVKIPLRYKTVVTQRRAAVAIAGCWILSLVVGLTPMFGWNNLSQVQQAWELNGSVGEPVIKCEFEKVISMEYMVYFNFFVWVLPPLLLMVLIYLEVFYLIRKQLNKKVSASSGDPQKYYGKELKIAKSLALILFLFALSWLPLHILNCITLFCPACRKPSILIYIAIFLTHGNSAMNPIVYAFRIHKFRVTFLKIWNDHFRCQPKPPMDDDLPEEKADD
Experimental: A scintillation proximity assay (SPA) using rabbit antibodies directed at cAMP using an added tracer of adenosine 3′,5′-cyclic phosphoric acid 2′-O-succinyl-3-[^125I]iodotyrosine methyl ester and fluoromicrospheres containing anti-rabbit specific antibodies as described by Amersham Pharmacia Biotech (Biotrak cellular communication assays). Briefly, DDT1 cells were cultured in clear bottomed 96 well microtiter plates with opaque wells at concentrations between 10^4 to 10^6 cells per well in 40 μl of HBSS at 37° C. (5% CO2 and 95% humidity). The partial or full A1 agonists (5 μl) of this invention were incubated at various concentrations with the DDT1 cells in the presence of rolipram (50 μM), and 5 μM forskolin for 10 min at 37° C. The cells were immediately lysed by treatment 5 μl of 10% dodecyltrirnethylammonium bromide followed by shaking using rnicroplate shaker. After incubation of the plate for 5 minutes, an imnuunoreagent solution (150 μl containing equal volumes of tracer, antiserum, and SPA fluorospheres) was added to each well followed by sealing the plate. After 15-20 h at 23° C., the amount of bound [^125] cAM to the fluoromicrospheres was determined by counting in a microtitre plate scintillation counter for 2 minutes. Comparison of counts with standard curves generated for cAMP using a similar protocol afforded the cAMP present after cell lysis.

Row | Structure (SMILES) | effect on atrial monophasic action potential (A1 adenosine receptor [1]) | effect on AV nodal conduction time (S-H interval) (A1 adenosine receptor [1]) | second-degree AV block (A1 adenosine receptor [1]) | effect on heart rate (chronotropic) (A1 adenosine receptor [1]) | other results
1 | OC[C@H]1O[C@@H](n2cnc3c(NC4CCCC4)nc(Cl)nc32)[C@H](O)[C@@H]1O [CCPA, 2-chloro-N6-cyclopentyladenosine] | shortened the monophasic atrial action potential | prolonged the S—H interval | caused second-degree AV block | slowed heart rate | protection with respect to infarct size (A1 receptor [2]): providing protection with respect to infarct size
2 | Cc1ccccc1CNc1ncnc2c1ncn2[C@@H]1O[C@H](CO)[C@@H](O)[C@H]1O [metrifudil] | – | – | – | – | anticonvulsant activity [3]: potent anticonvulsant
3 | C[C@H](Cc1ccccc1)Nc1ncnc2c1ncn2[C@@H]1O[C@H](CO)[C@@H](O)[C@H]1O [R-PIA, R-N6-phenylisopropyladenosine] | – | – | – | – | leptin release (white adipocytes): increase the leptin released from white adipocytes; desensitization of A1 receptor (dromotropic response) (A1 receptor [4]): led to a desensitization
4 | OC[C@H]1O[C@@H](n2cnc3c(NC4CCCC4)ncnc32)[C@H](O)[C@@H]1O [CPA, N-6-cyclopentyladenosine] | shortened the monophasic atrial action potential | prolonged the S—H interval | caused second-degree AV block | slowed heart rate | effect on forskolin induced cAMP generation (A1 adenosine receptor [5]; DDT1 cells): diminished the amount of forskolin induced cAMP generation back to basal levels; cAMP (A1 adenosine receptor [5]; normalized to full agonist CPA, 5 μM forskolin, 50 μM rolipram): 100%; second degree AV block (A1 adenosine receptor [1]; 30 nM CPA, four hearts): Second degree AV block occurred in all hearts
5 | O=c1[nH]c(=O)c2[nH]c(C3CCCC3)nc2[nH]1 [CPX, 8-cyclopentylxanthine] | – | – | – | – | antagonism of S-H interval prolongation caused by Compound 6 (A1 adenosine receptor [1]; CPX 50 nM, cycle length 300 msec, FIG. 2): significant (P<0.05); also recorded: antagonizes the prolongation of S—H interval caused by compound 6
